Data as given in patent publication US10456405B2, “Nitric oxide-releasing prodrug molecule of substituted quinazolines” (ZHEJIANG HUAHAI PHARMACEUTICAL CO., LTD, priority 2015, dated 2019).
Where two headings read alike, the source gives them in different places.

Tests used:
db/db mice = assay: Serum NO and heart eNOS in db/db mice after oral gavage; assay type: in vivo; details: blank = 100, oral gavage 150 mg/kg (isosorbide mononitrate 5 mg/kg), 1 h after administration (H101: 2 h)
Source text: Experimental method: 25 eight-week-old db/db mice (strain: BKS.Cg−+Leprdb/+leprdb/JclSlac; grade: SPF; gender: male; source: Shanghai SLAC Laboratory Animal Co., Ltd.) were selected. 3 of them were selected as the blank administration control. 2 mice were used as the positive drug control (isosorbide mononitrate). The remaining 20 mice were randomly divided into 5 groups, 4 mice per group, which are H101 administration group, H111 administration group, H116 administration group, H119 administration group, and H130 administration group. The tested compounds of the positive drug control group and each administration group were dissolved in DMSO. Then PEG400 was added. The mixture was shaken and mixed thoroughly. At last, 10% of HP-β-CD was added. The mixture was shaken and mixed thoroughly. The ratio of each solvent was DMSO: PEG400:10% of HP-β-CD=5:67.5:27.5. The administration group was administered by oral gavage at the dose of 150 mg/kg. The positive drug control group was administered at the dose of 5 mg/kg. The mice in the H101 administration group were sacrificed at 2 h after the administration. The mice in the remaining administration groups were sacrificed at 1 h after the administration. The blood was collected respectively into 1.5 mL centrifuge tube, standing at room temperature for more than 30 min, and then centrifuged (3000 rpm, 10 min). The supernatant serum was aspirated, and stored at −80° C. for testing. After the blood was collected, the heart was cut with the thoracic aorta. Three parts of the heart were weighed and placed into cryovials, rapidly frozen in liquid nitrogen, and cryopreserved at −80° C. for testing. The aorta and aortic arch were weighed, rapidly frozen in liquid nitrogen, and cryopreserved at −80° C. for testing. The content of NO in the serum of the […] mice was determined by a total NO test kit (Beyotime). The content of NOS in the heart of the mice was determined with an NOS test kit (Beyotime). The content of eNOS was calculated by the difference between the measured values before and after adding the eNOS inhibitor L-NAME (Beyotime).

ApoA-I mRNA = assay: Regulation of ApoA-I mRNA in HepG2 cells (real-time PCR); assay type: cell-based; parameters: key: Active: When 100 μM of the tested compound allowed ApoA-I mRNA in HepG2 cells to increase more than 15%, then the test compound was known as an ApoA active compound; details: 100 μM, 48 h, relative to DMSO control
Protocol: Experiment 5. Regulation of the Tested Compounds on ApoA-I mRNA HepG2 cells were cultured for 24 h in a 24-well plate with 400 μl of MEM medium containing 0.5% (v/v) of fetal bovine serum. Then each of the tested compounds (100 μM) and the positive control RVX-208 (100 μM) were added. The cells were cultured for another 48 h. The medium was aspirated out. After washing with 200 μl of PBS, 85 μl of cell lysis solution was added into the cells in each well. The cells were incubated at room temperature for 5 to 10 min to be completely dissolved and detached. The mRNA was extracted from the cells with a kit. The extracted mRNA were used for a real-time fluorescence quantitative PCR detection with RNA Fluorescence (RiboGreen) Quantitation Assay Kit and ApoA-I mRNA Primer-Probe Mixture from the company of Applied Biosystems.
After obtaining the Ct values, the induction fold of each test compound relative to DMSO control was calculated. The induction fold was used to reflect the ability of regulating ApoA-I mRNA for the tested compounds. When 100 μM of the tested compound allowed ApoA-I mRNA in HepG2 cells to increase more than 15%, then the test compound was known as an ApoA active compound.

apoE−/− mice = assay: apoE−/− mouse atherosclerosis model, high-fat diet 10 weeks; assay type: in vivo; details: for Aorta eNOS / ApoA1 / Heart eNOS / Serum NO / Serum eNOS: blank administration group = 100, 150 mg/kg twice a day, 10 weeks; for HDL-C / LDL-C / TC: serum, high-fat diet 10 weeks, intragastric 150 mg/kg twice a day
Source text: Experimental method: 36 eight-week-old male apoE-/- mice were selected and randomly divided into a blank administration group, an […] administration group, an […] administration group, an […] administration group, an […] administration group, and an […] administration group, 6 mice per group. The mice in each group were fed with high-fat diet for 10 weeks. At the beginning of the high-fat feeding, the mice in each group were administrated. Each tested compound was intragastric administered at the dose of 150 mg/kg twice a day. The blank administration group was given corresponding dose of saline. […] After the blood was taken, the serum, heart, and aorta were isolated. The levels of total cholesterol (TC), high density lipoprotein cholesterol (HDL-C), and low density lipoprotein cholesterol (LDL-C) in the serum of the mice in each group were measured by automatic biochemical analyzer. The ApoA1 expression level was detected with an ApoA1 kit. The content of NO in the serum of the mice was determined with a total NO test kit (Beyotime). The NOS activities of the heart, aorta, and serum were determined with an NOS test kit (Beyotime). The content of eNOS was calculated by the difference between the measured values determined before and after adding eNOS inhibitor L-NAME (Beyotime).

[1] = rat, in vivo
Protocol: Experimental method: Intravenous injection solutions (the administration concentrations of the tested compounds were 1 mg/kg) and oral gastric perfusates (the administration concentrations of the test compounds were 5 mg/kg) of the test compounds were prepared, and intravenously and orally administered to three SD rats, respectively. The concentrations of the whole blood for H130 at 0.083 h, 0.25 h, 0.5 h, 1 h, 2 h, 4 h, 8 h, and 24 h after administration were determined by LC-MS/MS, respectively. The pharmacokinetic parameters were compared by a drug-time curve. Sample pretreatment: 150 μL of the whole blood to be tested was aspirated accurately. 600 μL of internal standard solution (diluted to 0.5 μg/mL with methanol) was added, sufficiently mixed by a vortex mixer, and centrifuged at 13000 r/min for 20 min at 4° C. 3 μL of the supernatant was taken into a sample vial.
Chromatographic conditions: C18 reversed-phase chromatographic column; gradient elution with mobile phase A: water/acetonitrile (v:v=95:5) with 0.025% of formic acid and 1 mM of ammonium acetate added thereto, and mobile phase B: acetonitrile/water (v:v=95:5) with 0.025% of formic acid and 1 mM of ammonium acetate added thereto.

| Molecule | Heart eNOS (db/db mice) [%] | Serum NO (db/db mice) [%] | Upregulation of Apoa-I Mrna Level (ApoA-I mRNA) | Aorta eNOS (apoE−/− mice) [%] | ApoA1 (apoE−/− mice) [%] | Heart eNOS (apoE−/− mice) [%] | Serum NO (apoE−/− mice) [%] | Serum eNOS (apoE−/− mice) [%] | HDL-C (apoE−/− mice) [mg/dL] | LDL-C (apoE−/− mice) [mg/dL] | TC (apoE−/− mice) [mg/dL] | release of prototype compound H130 after administration [1] | AUCRatio (Dosage Calibration) ([1]; iv, 1 mg/kg) [%] | AUCRatio (Dosage Calibration) ([1]; po, 5 mg/kg) [%] | AUCRatio (Dosage Calibration) ([1]; SD, iv, 1 mg/kg) [%] | AUCRatio (Dosage Calibration) ([1]; SD, po, 5 mg/kg) [%] |
| --- | --- | --- | --- | --- | --- | --- | --- | --- | --- | --- | --- | --- | --- | --- | --- | --- |
| 2-[4-(5,7-dimethoxy-4-oxo-3,4-dihydro-quinazolin-2-yl)-2,6-dimethyl-phenoxy]-ethyl 4-(2-oxo-3-nitroxymethyl-1,2,5-oxadiazol-3-methyl)oxy-4-oxo-butyrate [Compound H111] | 165 | 154 | Active | 127 | 118 | 145 | 134 | 132 | 83 ± 13 | 296 ± 29 | 1021 ± 57 | can be rapidly released | 54.9 | 41.8 | – | – |
| COc1cc(OC)c2c(=O)[nH]c(-c3cc(C)c(OCCO[N+](=O)[O-])c(C)c3)nc2c1 [Compound H101, 2-(4-(2-nitrooxy-ethoxy)-3,5-dimethylphenyl)-5,7-dimethoxyquinazolin-4(3H)-one] | 162 | 142 | Active | 132 | 126 | 135 | 126 | 128 | 78 ± 9 | 273 ± 38 | 985 ± 68 | can be rapidly released | – | – | 37.7 | 42.4 |
| COc1cc(OC)c2c(=O)[nH]c(-c3cc(C)c(OCCOC(=O)OC4COC5C(O[N+](=O)[O-])COC45)c(C)c3)nc2c1 (stereo not drawn) [Compound H119, 2-[4-(5,7-dimethoxy-4-oxo-3,4-dihydro-quinazolin-2-yl)-2,6-dimethyl-phenoxy]-ethyl (6-nitroxy-hexahydrofuro[3,2-b]furan-3-yl)-carbonate] | 156 | 152 | Active | 124 | 114 | 138 | 127 | 126 | 88 ± 14 | 308 ± 35 | 994 ± 85 | can be rapidly released | 55.6 | 0.84 | – | – |
